Source: patent US9624269B2, “Peptide inhibitors of BACE1” (GENENTECH, INC., priority 2011, dated 2017)

Assays:
Test in all cases: Biotinylated BACE020 peptide binding ELISA
[1] = molecular target: T1, human BACE1 ECD mutant F169A (108) (Homo sapiens, UniProt P56817, F169A)
T1 construct: extracellular domain (ECD) (residues 22-457) and a C-terminal His8 tag; made in house; host or cells: Chinese hamster ovary cells (transient)
Excerpt: (§1) Human BACE1 mutants were made in a pRK vector containing the BACE 1 signal peptide followed by its extracellular domain (ECD) (residues 22-457) and a C-terminal His8 tag (SEQ ID NO: 54). Mutations were made using the appropriate oligonucleotide using a QuikChange® II XL Site-Directed Mutagenesis kit (Agilent Technologies Stratagene Products, La Jolla, Calif.) and confirmed by DNA sequencing. Proteins were expressed transiently using Chinese hamster ovary cells growing in 1-liter fermenters and cultures were harvested after 2 weeks. Following centrifugation, mutant proteins from the medium were purified to homogeneity (>95% purity) by chromatography on Ni-NTA agarose (Qiagen, Valencia, Calif.). After washing with PBS containing 10 mM imidazole, proteins were eluted with PBS containing 200 mM imidazole and the eluate was pooled, concentrated using a Vivaspin 20 (Sartorius-stedim, Goettingen, Germany) and applied to a Superdex 200 10/300 GL column (GE Healthcare Bio-Sciences AB, Uppsala, Sweden) equilibrated in 20 mM HEPES pH 7.2, 150 mM NaCl. Protein peaks were collected, concentrated and protein concentration determined by A280.
(§2) Binding of biotinylated BACE020 to recombinant protein was determined by a 96-well plate assay. Maxisorp microtiter plates (Nalge Nunc International, Rochester, N.Y.) were coated overnight at 4° C. with 2 μg/ml BACE 1 mutant in 50 mM carbonate, pH 9.6. The coated wells were washed with buffer (PBS, 0.05% Polysorbate 20) and blocked with assay buffer (PBS, pH 7.4, 0.5% BSA, 0.05% Tween 20, 15 ppm Proclin) for 1 h at room temperature with gentle shaking. After blocking, various concentrations of C-terminal biotin tagged BACE020 peptide with a polyethylene glycol (PEG) spacer (Ac-[…]-(PEG)3-biotin (SEQ ID NO: 16); Ac-[…]-CONH—CH2—(CH2—CH2—O—)3—(CH2)3—NH-biotin (SEQ ID NO: 16)) diluted in assay buffer were added and plates were incubated for 1 h with gentle shaking at room temperature. After washing, the amount of peptide bound to the plate was detected by the addition of Streptavidin-Horseradish Peroxidase Conjugate (GE Healthcare, Piscataway, N.J.) followed by the addition of TMB/H2O2 substrate (KPL, Gaithersburg, Md.). The reaction was quenched with 1 M phosphoric acid and the A450 measured on a Molecular Devices SpectraMax Plus384 microplate reader. Concentrations to give half maximal effective concentration (EC50) were determined using a 4-parameter non-linear regression curve-fitting program with Kaleidagraph (Synergy Software, Reading, Pa.). […] Concentrations to give half maximal inhibition concentration (IC50) were determined using a 4-parameter non-linear regression curve-fitting program with Kaleidagraph.
(§3) The ability of biotinylated BACE020 to bind to BACE1 and mutants was determined using an ELISA assay. The fold decrease in binding affinity was determined as the relative EC50 values of EC50 (mut)/EC50 (WT), which are listed in Table 3.

[2] = molecular target: T2, human BACE1 ECD mutant Y132A (71) (Homo sapiens, UniProt P56817, Y132A)
T2 construct: extracellular domain (ECD) (residues 22-457) and a C-terminal His8 tag; made in house; host or cells: Chinese hamster ovary cells (transient)
T2 sequence (P56817 22-457 Y132A): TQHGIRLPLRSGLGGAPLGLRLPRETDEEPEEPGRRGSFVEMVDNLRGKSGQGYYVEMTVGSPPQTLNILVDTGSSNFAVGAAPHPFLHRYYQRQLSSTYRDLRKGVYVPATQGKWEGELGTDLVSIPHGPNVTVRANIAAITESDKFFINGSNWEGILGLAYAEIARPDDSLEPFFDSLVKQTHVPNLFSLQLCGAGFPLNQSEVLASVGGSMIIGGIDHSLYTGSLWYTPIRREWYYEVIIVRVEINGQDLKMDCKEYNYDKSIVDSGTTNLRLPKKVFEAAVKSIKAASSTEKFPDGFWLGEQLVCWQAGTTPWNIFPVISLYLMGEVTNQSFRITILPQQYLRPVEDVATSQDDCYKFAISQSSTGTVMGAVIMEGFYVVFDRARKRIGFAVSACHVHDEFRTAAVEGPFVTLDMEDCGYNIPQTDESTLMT
Excerpt: as §1, §2, §3

[3] = molecular target: T3, human BACE1 ECD mutant K382A (321) (Homo sapiens, UniProt P56817, K382A)
T3 construct: its extracellular domain (ECD) (residues 22-457) and a C-terminal His8 tag; His8 (C); made in house; host or cells: Chinese hamster ovary cells (transient, secreted)
T3 sequence (P56817 22-457 K382A): as the sequence (P56817 22-457 Y132A) above, with A111Y, K361A counted along it
Excerpt: as §1, §2, §3

[4] = molecular target: T4, human BACE1 ECD mutant L91A (30) (Homo sapiens, UniProt P56817, L91A)
T4 construct: extracellular domain (ECD) (residues 22-457) and a C-terminal His8 tag; made in house; host or cells: Chinese hamster ovary cells (transient)
T4 sequence (P56817 22-457 L91A): as the sequence (P56817 22-457 Y132A) above, with L70A, A111Y counted along it
Excerpt: as §1, §2, §3

[5] = molecular target: T5, human BACE1 ECD mutant Q73A (12) (Homo sapiens, UniProt P56817, Q73A)
T5 construct: extracellular domain (ECD) (residues 22-457) and a C-terminal His8 tag; made in house; host or cells: Chinese hamster ovary cells (transient)
T5 sequence (P56817 22-457 Q73A): as the sequence (P56817 22-457 Y132A) above, with Q52A, A111Y counted along it
Excerpt: as §1, §2, §3

[6] = molecular target: T6, human BACE1 ECD mutant N294A (233) (Homo sapiens, UniProt P56817, N294A)
T6 construct: its extracellular domain (ECD) (residues 22-457) and a C-terminal His8 tag; His8 (C); made in house; host or cells: Chinese hamster ovary cells (transient, secreted)
T6 sequence (P56817 22-457 N294A): as the sequence (P56817 22-457 Y132A) above, with A111Y, N273A counted along it
Excerpt: as §1, §2, §3

[7] = molecular target: T7, human BACE1 ECD mutant S96A (35) (Homo sapiens, UniProt P56817, S96A)
T7 construct: extracellular domain (ECD) (residues 22-457) and a C-terminal His8 tag; made in house; host or cells: Chinese hamster ovary cells (transient)
T7 sequence (P56817 22-457 S96A): as the sequence (P56817 22-457 Y132A) above, with S75A, A111Y counted along it
Excerpt: as §1, §2, §3

[8] = molecular target: T8, human BACE1 ECD mutant R296A (235) (Homo sapiens, UniProt P56817, R296A)
T8 construct: its extracellular domain (ECD) (residues 22-457) and a C-terminal His8 tag; His8 (C); made in house; host or cells: Chinese hamster ovary cells (transient, secreted)
T8 sequence (P56817 22-457 R296A): as the sequence (P56817 22-457 Y132A) above, with A111Y, R275A counted along it
Excerpt: as §1, §2, §3

[9] = molecular target: T9, human BACE1 ECD mutant I171A (110) (Homo sapiens, UniProt P56817, I171A)
T9 construct: extracellular domain (ECD) (residues 22-457) and a C-terminal His8 tag; made in house; host or cells: Chinese hamster ovary cells (transient)
T9 sequence (P56817 22-457 I171A): as the sequence (P56817 22-457 Y132A) above, with A111Y, I150A counted along it
Excerpt: as §1, §2, §3

[10] = molecular target: T10, human BACE1 ECD mutant G74A (13) (Homo sapiens, UniProt P56817, G74A)
T10 construct: extracellular domain (ECD) (residues 22-457) and a C-terminal His8 tag; made in house; host or cells: Chinese hamster ovary cells (transient)
T10 sequence (P56817 22-457 G74A): as the sequence (P56817 22-457 Y132A) above, with G53A, A111Y counted along it
Excerpt: as §1, §2, §3

[11] = molecular target: T11, human BACE1 ECD mutant D93A (32) (Homo sapiens, UniProt P56817, D93A)
T11 construct: extracellular domain (ECD) (residues 22-457) and a C-terminal His8 tag; made in house; host or cells: Chinese hamster ovary cells (transient)
T11 sequence (P56817 22-457 D93A): as the sequence (P56817 22-457 Y132A) above, with D72A, A111Y counted along it
Excerpt: as §1, §2, §3

[12] = molecular target: T12, human BACE1 ECD mutant W176A (115) (Homo sapiens, UniProt P56817, W176A)
T12 construct: extracellular domain (ECD) (residues 22-457) and a C-terminal His8 tag; made in house; host or cells: Chinese hamster ovary cells (transient)
T12 sequence (P56817 22-457 W176A): as the sequence (P56817 22-457 Y132A) above, with A111Y, W155A counted along it
Excerpt: as §1, §2, §3

[13] = molecular target: T13, human BACE1 ECD mutant K285A (224) (Homo sapiens, UniProt P56817, K285A)
T13 construct: extracellular domain (ECD) (residues 22-457) and a C-terminal His8 tag; made in house; host or cells: Chinese hamster ovary cells (transient)
T13 sequence (P56817 22-457 K285A): as the sequence (P56817 22-457 Y132A) above, with A111Y, K264A counted along it
Excerpt: as §1, §2, §3

[14] = molecular target: T14, human BACE1 ECD mutant K168A (107) (Homo sapiens, UniProt P56817, K168A)
T14 construct: extracellular domain (ECD) (residues 22-457) and a C-terminal His8 tag; made in house; host or cells: Chinese hamster ovary cells (transient)
T14 sequence (P56817 22-457 K168A): as the sequence (P56817 22-457 Y132A) above, with A111Y, K147A counted along it
Excerpt: as §1, §2, §3

human BACE1 ECD WT = molecular target: T15, human BACE1 ECD WT (Homo sapiens, UniProt P56817)
T15 construct: extracellular domain (ECD) (residues 22-457) and a C-terminal His8 tag; made in house; host or cells: Chinese hamster ovary cells (transient)
T15 sequence (P56817 22-457): as the sequence (P56817 22-457 Y132A) above, with A111Y counted along it
Excerpt: as §1, §2, §3

[15] = molecular target: T16, human BACE1 ECD mutant T292A (231) (Homo sapiens, UniProt P56817, T292A)
T16 construct: its extracellular domain (ECD) (residues 22-457) and a C-terminal His8 tag; His8 (C); made in house; host or cells: Chinese hamster ovary cells (transient, secreted)
T16 sequence (P56817 22-457 T292A): as the sequence (P56817 22-457 Y132A) above, with A111Y, T271A counted along it
Excerpt: as §1, §2, §3

[16] = molecular target: T17, human BACE1 ECD mutant T390A (329) (Homo sapiens, UniProt P56817, T390A)
T17 construct: its extracellular domain (ECD) (residues 22-457) and a C-terminal His8 tag; His8 (C); made in house; host or cells: Chinese hamster ovary cells (transient, secreted)
T17 sequence (P56817 22-457 T390A): as the sequence (P56817 22-457 Y132A) above, with A111Y, T369A counted along it
Excerpt: as §1, §2, §3

[17] = molecular target: T18, human BACE1 ECD mutant T133A (72) (Homo sapiens, UniProt P56817, T133A)
T18 construct: extracellular domain (ECD) (residues 22-457) and a C-terminal His8 tag; made in house; host or cells: Chinese hamster ovary cells (transient)
T18 sequence (P56817 22-457 T133A): as the sequence (P56817 22-457 Y132A) above, with A111Y, T112A counted along it
Excerpt: as §1, §2, §3

[18] = molecular target: T19, human BACE1 ECD mutant D289A (228) (Homo sapiens, UniProt P56817, D289A)
T19 construct: extracellular domain (ECD) (residues 22-457) and a C-terminal His8 tag; made in house; host or cells: Chinese hamster ovary cells (transient)
T19 sequence (P56817 22-457 D289A): as the sequence (P56817 22-457 Y132A) above, with A111Y, D268A counted along it
Excerpt: as §1, §2, §3

[19] = molecular target: T20, human BACE1 ECD mutant R189A (128) (Homo sapiens, UniProt P56817, R189A)
T20 construct: extracellular domain (ECD) (residues 22-457) and a C-terminal His8 tag; made in house; host or cells: Chinese hamster ovary cells (transient)
T20 sequence (P56817 22-457 R189A): as the sequence (P56817 22-457 Y132A) above, with A111Y, R168A counted along it
Excerpt: as §1, §2, §3

[20] = molecular target: T21, human BACE1 ECD mutant G291A (230) (Homo sapiens, UniProt P56817, G291A)
T21 construct: its extracellular domain (ECD) (residues 22-457) and a C-terminal His8 tag; His8 (C); made in house; host or cells: Chinese hamster ovary cells (transient, secreted)
T21 sequence (P56817 22-457 G291A): as the sequence (P56817 22-457 Y132A) above, with A111Y, G270A counted along it
Excerpt: as §1, §2, §3

[21] = molecular target: T22, human BACE1 ECD mutant T293A (232) (Homo sapiens, UniProt P56817, T293A)
T22 construct: its extracellular domain (ECD) (residues 22-457) and a C-terminal His8 tag; His8 (C); made in house; host or cells: Chinese hamster ovary cells (transient, secreted)
T22 sequence (P56817 22-457 T293A): as the sequence (P56817 22-457 Y132A) above, with A111Y, T272A counted along it
Excerpt: as §1, §2, §3

[22] = molecular target: T23, human BACE1 ECD mutant G72A (11) (Homo sapiens, UniProt P56817, G72A)
T23 construct: extracellular domain (ECD) (residues 22-457) and a C-terminal His8 tag; made in house; host or cells: Chinese hamster ovary cells (transient)
T23 sequence (P56817 22-457 G72A): as the sequence (P56817 22-457 Y132A) above, with G51A, A111Y counted along it
Excerpt: as §1, §2, §3

[23] = molecular target: T24, human BACE1 ECD mutant 1I79A (118) (Homo sapiens, UniProt P56817, I179A)
T24 construct: extracellular domain (ECD) (residues 22-457) and a C-terminal His8 tag; made in house; host or cells: Chinese hamster ovary cells (transient)
T24 sequence (P56817 22-457 I179A): as the sequence (P56817 22-457 Y132A) above, with A111Y, I158A counted along it
Excerpt: as §1, §2, §3

[24] = molecular target: T25, human BACE1 ECD mutant Q134A (73) (Homo sapiens, UniProt P56817, Q134A)
T25 construct: extracellular domain (ECD) (residues 22-457) and a C-terminal His8 tag; made in house; host or cells: Chinese hamster ovary cells (transient)
T25 sequence (P56817 22-457 Q134A): as the sequence (P56817 22-457 Y132A) above, with A111Y, Q113A counted along it
Excerpt: as §1, §2, §3

T1 sequence (P56817 22-457 F169A): as the sequence (P56817 22-457 Y132A) above, with A111Y, F148A counted along it

Ac-NEESMYCRLLGIGCG-(PEG)3-biotin [Biotinylated BACE020]
Fold Decrease in Binding EC50 (Mut)/EC50 (WT) [1]: 1.9
Fold Decrease in Binding EC50 (Mut)/EC50 (WT) [2]: 72.2
Fold Decrease in Binding EC50 (Mut)/EC50 (WT) [3]: 4.5
Fold Decrease in Binding EC50 (Mut)/EC50 (WT) [4]: 1.0
Fold Decrease in Binding EC50 (Mut)/EC50 (WT) [5]: 1.7
Fold Decrease in Binding EC50 (Mut)/EC50 (WT) [6]: 2.4
Fold Decrease in Binding EC50 (Mut)/EC50 (WT) [7]: 1.0
Fold Decrease in Binding EC50 (Mut)/EC50 (WT) [8]: 70.9
Fold Decrease in Binding EC50 (Mut)/EC50 (WT) [9]: 1020.0
Fold Decrease in Binding EC50 (Mut)/EC50 (WT) [10]: 488.0
Fold Decrease in Binding EC50 (Mut)/EC50 (WT) [11]: 568.0
Fold Decrease in Binding EC50 (Mut)/EC50 (WT) [12]: 690.0
Fold Decrease in Binding EC50 (Mut)/EC50 (WT) [13]: 4.0
Fold Decrease in Binding EC50 (Mut)/EC50 (WT) [14]: 1.0
Fold Decrease in Binding EC50 (Mut)/EC50 (WT) (human BACE1 ECD WT): 1.0
Fold Decrease in Binding EC50 (Mut)/EC50 (WT) [15]: 73.6
Fold Decrease in Binding EC50 (Mut)/EC50 (WT) [16]: 0.9
Fold Decrease in Binding EC50 (Mut)/EC50 (WT) [17]: 1.1
Fold Decrease in Binding EC50 (Mut)/EC50 (WT) [18]: 2210.0
Fold Decrease in Binding EC50 (Mut)/EC50 (WT) [19]: 2.7
Fold Decrease in Binding EC50 (Mut)/EC50 (WT) [20]: 0.8
Fold Decrease in Binding EC50 (Mut)/EC50 (WT) [21]: 349.0
Fold Decrease in Binding EC50 (Mut)/EC50 (WT) [22]: 6.5
Fold Decrease in Binding EC50 (Mut)/EC50 (WT) [23]: 2.6
Fold Decrease in Binding EC50 (Mut)/EC50 (WT) [24]: 1990.0
